Data as given in the supplement of paper PMC4932681.

Experiments:
[1] = test system: BT-474 Tam1; test: drug sensitivity score (DSS) (DSS (dimensionless)); higher = more sensitive; extreme values may be limits of the assay; conditions: 4-OH-tamoxifen in medium 1 µM; 72 h
Method in brief: (§1)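 Drug sensitivity score, relative IC50 as the curve midpoint, and top-dose inhibition were derived from logistic dose–response fits in the Breeze pipeline. These fits used CellTiter-Glo viability, read on a PHERAstar and normalised to vehicle-only and positive controls. Breast cancer cell lines and resistant derivatives had been incubated for 72 h at 37 °C in 384-well plates holding library drugs at five concentrations spanning a 10 000-fold range. Resistant lines were grown in medium with 1 μM of the selecting drug.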

[2] = test system: BT-474 Tam2; test: as above; conditions: 4-OH-tamoxifen in medium 1 µM; 72 h
Method in brief: as §1

[3] = test system: BT-474; test: as above; conditions: 72 h
Method in brief: as §1

[4] = test system: MCF-7 Tam1; test: as above; conditions: 4-OH-tamoxifen in medium 1 µM; 72 h
Method in brief: as §1

[5] = test system: MCF-7; test: as above; conditions: 72 h
Method in brief: as §1

[6] = test system: T-47D Tam1; test: as above; conditions: 4-OH-tamoxifen in medium 1 µM; 72 h
Method in brief: as §1

[7] = test system: T-47D Tam2; test: as above; conditions: 4-OH-tamoxifen in medium 1 µM; 72 h
Method in brief: as §1

[8] = test system: T-47D; test: as above; conditions: 72 h
Method in brief: as §1

[9] = test system: ZR-75-1 Tam1; test: as above; conditions: 4-OH-tamoxifen in medium 1 µM; 72 h
Method in brief: as §1

[10] = test system: ZR-75-1 Tam2; test: as above; conditions: 4-OH-tamoxifen in medium 1 µM; 72 h
Method in brief: as §1

[11] = test system: ZR-75-1; test: as above; conditions: 72 h
Method in brief: as §1

[12] = test system: BT-474 Tam1; test: relative IC50 (midpoint of fitted logistic curve, plateau may be below 50% inhibition; CellTiter-Glo viability); higher = less potent; conditions: 4-OH-tamoxifen in medium 1 µM; 72 h
Method in brief: as §1

[13] = test system: BT-474 Tam2; test: as above; conditions: 4-OH-tamoxifen in medium 1 µM; 72 h
Method in brief: as §1

[14] = test system: BT-474; test: as above; conditions: 72 h
Method in brief: as §1

[15] = test system: MCF-7 Tam1; test: as above; conditions: 4-OH-tamoxifen in medium 1 µM; 72 h
Method in brief: as §1

[16] = test system: MCF-7; test: as above; conditions: 72 h
Method in brief: as §1

[17] = test system: T-47D Tam2; test: as above; conditions: 4-OH-tamoxifen in medium 1 µM; 72 h
Method in brief: as §1

[18] = test system: T-47D; test: as above; conditions: 72 h
Method in brief: as §1

[19] = test system: ZR-75-1 Tam1; test: as above; conditions: 4-OH-tamoxifen in medium 1 µM; 72 h
Method in brief: as §1

[20] = test system: ZR-75-1; test: as above; conditions: 72 h
Method in brief: as §1

[21] = test system: T-47D Tam1; test: as above; conditions: 4-OH-tamoxifen in medium 1 µM; 72 h
Method in brief: as §1

[22] = test system: ZR-75-1 Tam2; test: as above; conditions: 4-OH-tamoxifen in medium 1 µM; 72 h
Method in brief: as §1

SMILES	drug sensitivity score [1]	drug sensitivity score [2]	drug sensitivity score ([3]; 4-OH-tamoxifen in medium 0 µM)	drug sensitivity score ([3]; 4-OH-tamoxifen in medium 1 µM)	drug sensitivity score [4]	drug sensitivity score ([5]; 4-OH-tamoxifen in medium 0 µM)	drug sensitivity score ([5]; 4-OH-tamoxifen in medium 1 µM)	drug sensitivity score [6]	drug sensitivity score [7]	drug sensitivity score ([8]; 4-OH-tamoxifen in medium 0 µM)	drug sensitivity score ([8]; 4-OH-tamoxifen in medium 1 µM)	drug sensitivity score [9]	drug sensitivity score [10]	drug sensitivity score ([11]; 4-OH-tamoxifen in medium 0 µM)	drug sensitivity score ([11]; 4-OH-tamoxifen in medium 1 µM)	relative IC50 [12] [nM]	relative IC50 [13] [nM]	relative IC50 ([14]; 4-OH-tamoxifen in medium 0 µM) [nM]	relative IC50 ([14]; 4-OH-tamoxifen in medium 1 µM) [nM]	relative IC50 [15] [nM]	relative IC50 ([16]; 4-OH-tamoxifen in medium 0 µM) [nM]	relative IC50 ([16]; 4-OH-tamoxifen in medium 1 µM) [nM]	relative IC50 [17] [nM]	relative IC50 ([18]; 4-OH-tamoxifen in medium 1 µM) [nM]	relative IC50 [19] [nM]	relative IC50 ([20]; 4-OH-tamoxifen in medium 0 µM) [nM]	relative IC50 ([20]; 4-OH-tamoxifen in medium 1 µM) [nM]	relative IC50 [21] [nM]	relative IC50 ([18]; 4-OH-tamoxifen in medium 0 µM) [nM]	relative IC50 [22] [nM]
Cn1c(Nc2ccc(C(F)(F)F)cc2)nc2cc(Oc3ccnc(-c4ncc(C(F)(F)F)[nH]4)c3)ccc21 [RAF265]	0	0	0	0	0	0	0	8.26	0	0.294	0	0	0.002	0	0	> 1000	> 1000	> 1000	> 1000	> 1000	> 1000	> 1000	> 1000	> 1000	> 1000	> 1000	> 1000	–	–	–
CCCCCCCCc1ccc(CCC(N)(CO)CO)cc1 [Fingolimod]	4.13	4.99	4.44	4.21	0.0112	5.74	3.17	2.83	2.59	2.91	4.24	2.18	2.69	1.58	2.36	4130	3390	3770	4050	–	2890	3910	3860	3840	3370	3930	3710	3780	4090	3490
CC[C@]1(O)C[C@@H]2CN(CCc3c([nH]c4ccccc34)[C@@](C(=O)OC)(c3cc4c(cc3OC)N(C)[C@H]3[C@@](O)(C(=O)OC)[C@H](OC(C)=O)[C@]5(CC)C=CCN6CC[C@]43[C@@H]65)C2)C1 [Vinblastine]	13.1	17.1	13.2	21.5	0.0008	12.8	12.5	6.59	8.2	2.77	0.561	1.94	3.58	11.9	2.61	48.1	24.4	3.77	9.7	–	9.94	13.8	44.2	–	214	4.23	174	69.2	113	78.9
C=CC(=O)Nc1cc2c(Nc3ccc(F)c(Cl)c3)ncnc2cc1OCCCN1CCOCC1 [Canertinib]	34.2	31.6	24.8	33.6	1.4	6.68	6.46	6.06	5.77	3.92	0.761	2.99	2.58	3	3.11	11.7	18.6	31.3	12.4	–	1290	1640	1580	–	1740	2090	1510	513	1230	2780
